{"source": "patent US7713969B2", "about": "“Compositions and methods for treatment of cancer” (ArQule, Inc., priority 2005, dated 2010)", "key": {"HT29": {"system": "HT29", "assay": "Cell viability MTS assay", "format": "cell-based, human", "method": "(§1) Cell viability was determined by measuring the activity of dehydrogenase enzymes in metabolically active cells using a tetrazolium compound, MTS. The assay was performed as described in Promega Technical Bulletin No. 169 (CellTiter 96 Aqueous Non-Radioactive Cell Proliferation Assay). Thirteen human cancer cell lines were assayed (see, e.g., Table 1). Cells were maintained at 37° C., 5% CO2. Adherent cells were maintained DMEM media (4.5 g/L glucose) supplemented with 15% heat-inactivated FBS, 10 mM L-glutamine, and 10 mM Hepes pH 7.5. Suspension cells were maintained in RPMI 1640 media, supplemented with 10% heat-inactivated FBS and 10 mM Hepes pH 7.5. Briefly, cells were seeded in 96-well plates as set forth in Table 1 and incubated for 16-24 hours. Candidate compounds were serially diluted in DMSO, further diluted in cell culture media, and then added to cells (final DMSO concentration of 0.33%). Cells were incubated in the presence of candidate compound for 72 hours. MTS stock solution (MTS 2 gm/L, PMS […] in PBS) was added to the cells (final concentration MTS […] and PMS 7.67 mg/L) and incubated for 4 hours. SDS was added to a final concentration of 1.4% and absorbance at 490 nm was measured within two hours using a platereader. The IC50 was defined as the concentration of compound that results in a 50% reduction in the number of viable cells as compwered to control wells treated with DMSO only (0.33%) and was calculated using non-linear regression analyswas. IC50 values were given in Table 2 for the compounds listed."}, "MDA-MB-231": {"system": "MDA-MB-231", "assay": "Cell viability MTS assay", "format": "cell-based, human", "method": "as §1"}, "[1]": {"conditions": "Homo sapiens, HT-29, 72 hours with compound"}, "[2]": {"conditions": "Homo sapiens, MDA-MB-231, 72 hours with compound"}}, "data": [{"molecule": "3-(4-Benzoyloxyphenyl)-4-(5,6-dihydro-4H-pyrrolo[3,2,1-ij]quinolin-1-yl)-pyrrole-2,5-dione [Example 29]", "values": [{"measurement": "IC50", "setting": "HT29; 72 hours with compound", "value": "> 100", "unit": "µM"}, {"measurement": "IC50", "setting": "MDA-MB-231; 72 hours with compound", "value": "> 100", "unit": "µM"}]}, {"molecule": "3-(5,6-dihydro-4H-pyrrolo[3,2,1-ij]quinolin-1-yl)-4-(4-fluorophenyl)-1H-pyrrole-2,5-dione [Example 67]", "values": [{"measurement": "IC50", "setting": "HT29; 72 hours with compound", "value": 53.1, "unit": "µM"}]}, {"molecule": "O=C1[C@@H](c2c[nH]c3ccccc23)[C@H](c2cn3c4c(cccc24)CCC3)C(=O)N1COP(=O)(O)O", "note": "(racemic) [(±)-Phosphoric acid mono-[trans-3-(5,6-dihydro-4H-pyrrolo[3,2,1-ij]quinolin-1-yl)-4-(1H-indol-3-yl)-2,5-dioxo-pyrrolidin-1-ylmethyl]ester]", "values": [{"measurement": "IC50", "setting": "HT29; [1]", "value": 4.45, "unit": "µM"}, {"measurement": "IC50", "setting": "MDA-MB-231; [2]", "value": 5.89, "unit": "µM"}]}, {"molecule": "O=C1NC(=O)[C@@H](c2cn3c4c(cccc24)CCC3)[C@@H]1c1c[nH]c2ccc(-c3cccc4ccccc34)cc12", "note": "(racemic) [Example 37, (±)-Trans-3-(5,6-dihydro-4H-pyrrolo[3,2,1-ij]quinolin-1yl)-4-(5-(1-naphthyl)-1H-indol-3-yl)pyrrolidine-2,5-dione]", "values": [{"measurement": "IC50", "setting": "HT29; [1]", "value": 37.4, "unit": "µM"}, {"measurement": "IC50", "setting": "MDA-MB-231; [2]", "value": 43.4, "unit": "µM"}]}, {"molecule": "COc1ccc(-c2ccc3[nH]cc([C@@H]4C(=O)NC(=O)[C@H]4c4cn5c6c(cccc46)CCC5)c3c2)cc1", "note": "(racemic) [Example 38, (±)-Trans-3-(5,6-dihydro-4H-pyrrolo[3,2,1-ij]quinolin-1yl)-4-(5-(4-methoxyphenyl)-1H-indol-3-yl)pyrrolidine-2,5-dione]", "values": [{"measurement": "IC50", "setting": "HT29; [1]", "value": 10.6, "unit": "µM"}, {"measurement": "IC50", "setting": "MDA-MB-231; [2]", "value": 13.1, "unit": "µM"}]}, {"molecule": "Cc1cccc(-c2ccc3[nH]cc([C@@H]4C(=O)NC(=O)[C@H]4c4cn5c6c(cccc46)CCC5)c3c2)c1", "note": "(racemic) [Example 39, (±)-Trans-3-(5,6-dihydro-4H-pyrrolo[3,2,1-ij]quinolin-1yl)-4-(5-(3-methylphenyl)-1H-indol-3-yl)pyrrolidine-2,5-dione]", "values": [{"measurement": "IC50", "setting": "HT29; [1]", "value": 10.5, "unit": "µM"}]}, {"molecule": "O=C1NC(=O)[C@@H](c2cn3c4c(cccc24)CCC3)[C@@H]1c1ccc(F)cc1Cl", "note": "(racemic) [Example 40, (±)-Trans-3-(5,6-dihydro-4H-pyrrolo[3,2,1-ij]quinolin-1yl)-4-(2-chloro-4-fluorophenyl)pyrrolidine-2,5-dione]", "values": [{"measurement": "IC50", "setting": "HT29; [1]", "value": 10.5, "unit": "µM"}]}, {"molecule": "O=C1NC(=O)[C@@H](c2cn3c4c(cccc24)CCC3)[C@@H]1c1c(Cl)cccc1Cl", "note": "(racemic) [Example 41, (±)-Trans-3-(5,6-dihydro-4H-pyrrolo[3,2,1-ij]quinolin-1yl)-4-(2,6-dichlorophenyl)pyrrolidine-2,5-dione]", "values": [{"measurement": "IC50", "setting": "HT29; [1]", "value": 4.65, "unit": "µM"}, {"measurement": "IC50", "setting": "MDA-MB-231; [2]", "value": 7.63, "unit": "µM"}]}, {"molecule": "O=C1NC(=O)[C@@H](c2cn3c4c(cccc24)CCC3)[C@@H]1c1ccc(Br)cc1", "note": "(racemic) [Example 42, (±)-Trans-3-(5,6-dihydro-4H-pyrrolo[3,2,1-ij]quinolin-1yl)-4-(4-bromophenyl)pyrrolidine-2,5-dione]", "values": [{"measurement": "IC50", "setting": "HT29; [1]", "value": 44.1, "unit": "µM"}, {"measurement": "IC50", "setting": "MDA-MB-231; [2]", "value": 49.6, "unit": "µM"}]}, {"molecule": "O=C1NC(=O)[C@@H](c2cn3c4c(cccc24)CCC3)[C@@H]1c1ccc(Cl)cc1", "note": "(racemic) [Example 43, (±)-Trans-3-(5,6-dihydro-4H-pyrrolo[3,2,1-ij]quinolin-1yl)-4-(4-chlorophenyl)pyrrolidine-2,5-dione]", "values": [{"measurement": "IC50", "setting": "HT29; [1]", "value": 48.7, "unit": "µM"}, {"measurement": "IC50", "setting": "MDA-MB-231; [2]", "value": 54.5, "unit": "µM"}]}, {"molecule": "O=C1NC(=O)[C@@H](c2cn3c4c(cccc24)CCC3)[C@@H]1c1ccc(OC(F)(F)F)cc1", "note": "(racemic) [Example 44, (±)-Trans-3-(5,6-dihydro-4H-pyrrolo[3,2,1-ij]quinolin-1yl)-4-(4-trifluoromethoxyphenyl)pyrrolidine-2,5-dione]", "values": [{"measurement": "IC50", "setting": "HT29; [1]", "value": 12.5, "unit": "µM"}, {"measurement": "IC50", "setting": "MDA-MB-231; [2]", "value": 14.1, "unit": "µM"}]}, {"molecule": "O=C1NC(=O)[C@@H](c2cn3c4c(cccc24)CCC3)[C@@H]1c1ccsc1", "note": "(racemic) [Example 45, (±)-Trans-3-(5,6-dihydro-4H-pyrrolo[3,2,1-ij]quinolin-1yl)-4-(thiophen-3-yl)pyrrolidine-2,5-dione]", "values": [{"measurement": "IC50", "setting": "HT29; [1]", "value": 27.6, "unit": "µM"}, {"measurement": "IC50", "setting": "MDA-MB-231; [2]", "value": 42.7, "unit": "µM"}]}, {"molecule": "O=C1NC(=O)[C@@H](c2cn3c4c(cccc24)CCC3)[C@@H]1c1ccccc1F", "note": "(racemic) [Example 46, (±)-Trans-3-(5,6-dihydro-4H-pyrrolo[3,2,1-ij]quinolin-1yl)-4-(2-fluorophenyl)pyrrolidine-2,5-dione]", "values": [{"measurement": "IC50", "setting": "HT29; [1]", "value": 4.76, "unit": "µM"}, {"measurement": "IC50", "setting": "MDA-MB-231; [2]", "value": "> 100", "unit": "µM"}]}, {"molecule": "O=C1NC(=O)[C@@H](c2cn3c4c(cccc24)CCC3)[C@@H]1c1ccc(Cl)cc1Cl", "note": "(racemic) [Example 48, (±)-Trans-3-(5,6-dihydro-4H-pyrrolo[3,2,1-ij]quinolin-1yl)-4-(2,4-dichlorophenyl)pyrrolidine-2,5-dione]", "values": [{"measurement": "IC50", "setting": "HT29; [1]", "value": 8.39, "unit": "µM"}, {"measurement": "IC50", "setting": "MDA-MB-231; [2]", "value": 14.8, "unit": "µM"}]}, {"molecule": "O=C1NC(=O)[C@@H](c2cn3c4c(cccc24)CCC3)[C@@H]1c1ccccc1", "note": "(racemic) [Example 49, (±)-Trans-3-(5,6-dihydro-4H-pyrrolo[3,2,1-ij]quinolin-1yl)-4-phenyl-pyrrolidine-2,5-dione]", "values": [{"measurement": "IC50", "setting": "HT29; [1]", "value": 14.6, "unit": "µM"}]}, {"molecule": "CC(N)C(=O)OCN1C(=O)[C@@H](c2c[nH]c3ccccc23)[C@H](c2cn3c4c(cccc24)CCC3)C1=O", "note": "(mixture of isomers) [Example 57, (±)-trans-2-Amino-propionic acid-3-(5,6-dihydro-4H-pyrrolo[3,2,1-ij]quinolin-1-yl)-4-(1H-indol-3-yl)-2,5-dioxo-pyrrolidin-1-yl methyl ester]", "values": [{"measurement": "IC50", "setting": "HT29; 72 hours with compound", "value": 2.9, "unit": "µM"}, {"measurement": "IC50", "setting": "MDA-MB-231; 72 hours with compound", "value": 3.14, "unit": "µM"}]}, {"molecule": "NCC(=O)OCN1C(=O)[C@@H](c2c[nH]c3ccccc23)[C@H](c2cn3c4c(cccc24)CCC3)C1=O", "note": "(racemic) [Example 58, (±)-trans-2-Amino-acetic acid-3-(5,6-dihydro-4H-pyrrolo[3,2,1-ij]quinolin-1-yl)-4-(1H-indol-3-yl)-2,5-dioxo-pyrrolidin-1-yl methyl ester]", "values": [{"measurement": "IC50", "setting": "HT29; 72 hours with compound", "value": 2.77, "unit": "µM"}, {"measurement": "IC50", "setting": "MDA-MB-231; 72 hours with compound", "value": 3.45, "unit": "µM"}]}, {"molecule": "CN(C)CC(=O)OCN1C(=O)[C@@H](c2c[nH]c3ccccc23)[C@H](c2cn3c4c(cccc24)CCC3)C1=O", "note": "(racemic) [Example 59, (±)-trans-2-dimethylamino-acetic acid-3-(5,6-dihydro-4H-pyrrolo[3,2,1-ij]quinolin-1-yl)-4-(1H-indol-3-yl)-2,5-dioxo-pyrrolidin-1-ylmethyl ester]", "values": [{"measurement": "IC50", "setting": "HT29; [1]", "value": 3.74, "unit": "µM"}, {"measurement": "IC50", "setting": "MDA-MB-231; [2]", "value": 4.47, "unit": "µM"}]}, {"molecule": "O=C(OCN1C(=O)[C@@H](c2c[nH]c3ccccc23)[C@H](c2cn3c4c(cccc24)CCC3)C1=O)c1ccncc1", "note": "(racemic) [Example 60, (±)-trans-Isonicotinic acid-3-(5,6-dihydro-4H-pyrrolo[3,2,1-ij]quinolin-1-yl)-4-(1H-indol-3-yl)-2,5-dioxo-pyrrolidin-1-ylmethyl ester]", "values": [{"measurement": "IC50", "setting": "HT29; [1]", "value": 3.59, "unit": "µM"}, {"measurement": "IC50", "setting": "MDA-MB-231; [2]", "value": 3.55, "unit": "µM"}]}, {"molecule": "O=C1NC(=O)[C@@H](c2cn3c4c(cccc24)CCC3)[C@@H]1c1ccc(F)cc1", "note": "(racemic) [Example 70, (±)-Trans-3-(5,6-dihydro-4H-pyrrolo[3,2,1-ij]quinolin-1-yl)-4-(4-fluorophenyl)pyrrolidine-2,5-dione]", "values": [{"measurement": "IC50", "setting": "MDA-MB-231; [2]", "value": 49.2, "unit": "µM"}]}, {"molecule": "O=C1NC(=O)[C@@H](c2cn3c4c(cccc24)CCC3)[C@@H]1c1ccc(OCc2ccccc2)cc1", "note": "(racemic) [Example 71, (±)-Trans-3-[4-(benzyloxy)phenyl]-4-(5,6-dihydro-4H-pyrrolo[3,2,1-ij]quinolin-1-yl)pyrrolidine-2,5-dione]", "values": [{"measurement": "IC50", "setting": "HT29; [1]", "value": 48.7, "unit": "µM"}, {"measurement": "IC50", "setting": "MDA-MB-231; [2]", "value": 97.5, "unit": "µM"}]}, {"molecule": "O=C1NC(=O)C(c2cn3c4c(cccc24)CCC3)=C1c1ccc(F)cc1", "note": "[Example 67, 3-(5,6-dihydro-4H-pyrrolo[3,2,1-ij]quinolin-1-yl)-4-(4-fluorophenyl)-1H-pyrrole-2,5-dione]", "values": [{"measurement": "IC50", "setting": "MDA-MB-231; [2]", "value": 57, "unit": "µM"}]}, {"molecule": "(±)-Trans-3-(5,6-dihydro-4H-pyrrolo[3,2,1-ij]quinolin-1-yl)-4-(4-fluorophenyl)pyrrolidine-2,5-dione [Example 70]", "values": [{"measurement": "IC50", "setting": "HT29; 72 hours with compound", "value": 26.2, "unit": "µM"}]}]}
